Measurements: patent publication US20250092016A1, “COMPOUNDS AND COMPOSITIONS FOR THE TREATMENT OF CORONAVIRAL RELATED DISEASES” (priority 2021, published 2025)
Where two headings read alike, the source gives them in different places.

Molecular target: SARS-CoV-2 main protease (M^pro) (Severe acute respiratory syndrome coronavirus 2, UniProt P0DTD1)
Assay: Rapid-Fire MS Biochemical Assay measuring Mpro activity (5 nM Mpro)
Conditions: Mpro inhibition, 5 μM substrate peptide, 120 min
[1] = Table 1B, read-out: Rapid-Fire Assay IC50
[2] = Rapid-Fire Assay IC50, Table 1B

Row | SMILES | IC50 [1] [nM] | IC50 [2] [nM]
1 | N#C[C@H]1CN(c2ccc(C(F)F)cc2)C(=O)N1c1cncc2ccccc12 (single isomer, unassigned) [Compound 108a] | < 20 | –
2 | N#C[C@@H]1CN(c2ccc(C(F)F)cc2)C(=O)N1c1cncc2ccccc12 (single isomer, unassigned) [Compound 108b] | > 1000 | –
3 | N#C[C@H]1CN(c2cc(F)ccc2F)C(=O)N1c1cncc2ccccc12 (single isomer, unassigned) [Compound 109a] | < 20 | –
4 | N#C[C@@H]1CN(c2cc(F)ccc2F)C(=O)N1c1cncc2ccccc12 (single isomer, unassigned) [Compound 109b] | > 1000 | –
5 | N#C[C@H]1CN(c2cc(F)cc(F)c2)C(=O)N1c1cncc2ccccc12 (single isomer, unassigned) [Compound 110a] | < 20 | –
6 | N#C[C@@H]1CN(c2cc(F)cc(F)c2)C(=O)N1c1cncc2ccccc12 (single isomer, unassigned) [Compound 110b] | 200 to 1000 | –
7 | N#C[C@H]1CN(c2cccc(Cl)n2)C(=O)N1c1cncc2ccccc12 (single isomer, unassigned) [Compound 111a] | < 20 | –
8 | N#C[C@@H]1CN(c2cccc(Cl)n2)C(=O)N1c1cncc2ccccc12 (single isomer, unassigned) [Compound 111b] | 200 to 1000 | –
9 | COc1ccc(N2C[C@H](C#N)N(c3cncc4ccccc34)C2=O)cn1 (single isomer, unassigned) [Compound 112a] | < 20 | –
10 | COc1ccc(N2C[C@@H](C#N)N(c3cncc4ccccc34)C2=O)cn1 (single isomer, unassigned) [Compound 112b] | > 1000 | –
11 | Cc1ccc(Cl)cc1N1C[C@H](C#N)N(c2cncc3ccccc23)C1=O (single isomer, unassigned) [Compound 114a] | < 20 | –
12 | Cc1ccc(Cl)cc1N1C[C@@H](C#N)N(c2cncc3ccccc23)C1=O (single isomer, unassigned) [Compound 114b] | > 1000 | –
13 | COc1ccc(Cl)cc1N1C[C@H](C#N)N(c2cncc3ccccc23)C1=O (single isomer, unassigned) [Compound 115a] | < 20 | –
14 | COc1ccc(Cl)cc1N1C[C@@H](C#N)N(c2cncc3ccccc23)C1=O (single isomer, unassigned) [Compound 115b] | > 1000 | –
15 | Cc1ccc(C#N)c(N2C[C@H](C#N)N(c3cncc4ccccc34)C2=O)c1 (single isomer, unassigned) [Compound 116a] | < 20 | –
16 | Cc1ccc(C#N)c(N2C[C@@H](C#N)N(c3cncc4ccccc34)C2=O)c1 (single isomer, unassigned) [Compound 116b] | 200 to 1000 | –
17 | N#Cc1cnc(C(F)(F)F)cc1N1C[C@H](C#N)N(c2cncc3ccccc23)C1=O (single isomer, unassigned) [Compound 117a] | < 20 | –
18 | N#Cc1cnc(C(F)(F)F)cc1N1C[C@@H](C#N)N(c2cncc3ccccc23)C1=O (single isomer, unassigned) [Compound 117b] | 200 to 1000 | –
19 | Cc1c[nH]c(N2C[C@H](C#N)N(c3cncc4ccccc34)C2=O)n1 (single isomer, unassigned) [Compound 118a] | 200 to 1000 | –
20 | Cc1c[nH]c(N2C[C@@H](C#N)N(c3cncc4ccccc34)C2=O)n1 (single isomer, unassigned) [Compound 118b] | > 1000 | –

Row | SMILES | IC50 [1] [nM] | IC50 [2] [nM]
21 | N#C[C@H]1CN(c2nc(Cl)c[nH]2)C(=O)N1c1cncc2ccccc12 (single isomer, unassigned) [Compound 119a] | 20 to 200 | –
22 | N#C[C@@H]1CN(c2nc(Cl)c[nH]2)C(=O)N1c1cncc2ccccc12 (single isomer, unassigned) [Compound 119b] | > 1000 | –
23 | CC1CC(N2CC(C#N)N(c3cncc4ccccc34)C2=O)C1 (single isomer, unassigned) [Compound 120a] | < 20 | –
24 | CC1CC(N2CC(C#N)N(c3cncc4ccccc34)C2=O)C1 (single isomer, unassigned) [Compound 120c] | – | > 1000
25 | CC1CC(N2CC(C#N)N(c3cncc4ccccc34)C2=O)C1 (single isomer, unassigned) [Compound 120d] | > 1000 | –
26 | N#CC1CN(C2CCC(F)CC2)C(=O)N1c1cncc2ccccc12 (single isomer, unassigned) [Compound 121a] | < 20 | –
27 | N#CC1CN(C2CCC(F)CC2)C(=O)N1c1cncc2ccccc12 (single isomer, unassigned) [Compound 121b] | – | < 20
28 | N#CC1CN(C2CCC(F)CC2)C(=O)N1c1cncc2ccccc12 (single isomer, unassigned) [Compound 121d] | > 1000 | –
29 | N#C[C@H]1CN(C2CC3(CCC3)C2)C(=O)N1c1cncc2ccccc12 (single isomer, unassigned) [Compound 122a] | < 20 | –
30 | N#C[C@@H]1CN(C2CC3(CCC3)C2)C(=O)N1c1cncc2ccccc12 (single isomer, unassigned) [Compound 122b] | > 1000 | –
31 | N#C[C@H]1CN(C2CC3(CC3)C2)C(=O)N1c1cncc2ccccc12 (single isomer, unassigned) [Compound 125a] | < 20 | –
32 | N#C[C@@H]1CN(C2CC3(CC3)C2)C(=O)N1c1cncc2ccccc12 (single isomer, unassigned) [Compound 125b] | > 1000 | –
33 | CC1(C)CC(N2C[C@H](C#N)N(c3cncc4ccccc34)C2=O)C1 (single isomer, unassigned) [Compound 126a] | < 20 | –
34 | CC1(C)CC(N2C[C@@H](C#N)N(c3cncc4ccccc34)C2=O)C1 (single isomer, unassigned) [Compound 126b] | > 1000 | –
35 | N#C[C@H]1CN(C2CC3(C2)CC(F)(F)C3)C(=O)N1c1cncc2ccccc12 (single isomer, unassigned) [Compound 127a] | < 20 | –
36 | N#C[C@@H]1CN(C2CC3(C2)CC(F)(F)C3)C(=O)N1c1cncc2ccccc12 (single isomer, unassigned) [Compound 127b] | > 1000 | –
37 | N#C[C@H]1CN(C2CN(S(=O)(=O)C(F)(F)F)C2)C(=O)N1c1cncc2ccccc12 (single isomer, unassigned) [Compound 129a] | 20 to 200 | –
38 | N#C[C@@H]1CN(C2CN(S(=O)(=O)C(F)(F)F)C2)C(=O)N1c1cncc2ccccc12 (single isomer, unassigned) [Compound 129b] | > 1000 | –
39 | CS(=O)(=O)N1CC(N2C[C@H](C#N)N(c3cncc4ccccc34)C2=O)C1 (single isomer, unassigned) [Compound 130a] | 200 to 1000 | –
40 | CS(=O)(=O)N1CC(N2C[C@@H](C#N)N(c3cncc4ccccc34)C2=O)C1 (single isomer, unassigned) [Compound 130b] | > 1000 | –

Row | SMILES | IC50 [1] [nM] | IC50 [2] [nM]
41 | N#C[C@H]1CN(C2CN(S(=O)(=O)C3CC3)C2)C(=O)N1c1cncc2ccccc12 (single isomer, unassigned) [Compound 131a] | – | 20 to 200
42 | N#C[C@@H]1CN(C2CN(S(=O)(=O)C3CC3)C2)C(=O)N1c1cncc2ccccc12 (single isomer, unassigned) [Compound 131b] | – | > 1000
43 | N#C[C@H]1CN(C2CN(CC(F)(F)F)C2)C(=O)N1c1cncc2ccccc12 (single isomer, unassigned) [Compound 133a] | < 20 | –
44 | N#C[C@@H]1CN(C2CN(CC(F)(F)F)C2)C(=O)N1c1cncc2ccccc12 (single isomer, unassigned) [Compound 133b] | 20 to 200 | –
45 | CC(=O)N1CC(N2C[C@H](C#N)N(c3cncc4ccccc34)C2=O)C1 (single isomer, unassigned) [Compound 134a] | 200 to 1000 | –
46 | CC(=O)N1CC(N2C[C@@H](C#N)N(c3cncc4ccccc34)C2=O)C1 (single isomer, unassigned) [Compound 134b] | > 1000 | –
47 | N#C[C@H]1CN(C2CN(C3CC3)C2)C(=O)N1c1cncc2ccccc12 (single isomer, unassigned) [Compound 136a] | < 20 | –
48 | N#C[C@@H]1CN(C2CN(C3CC3)C2)C(=O)N1c1cncc2ccccc12 (single isomer, unassigned) [Compound 136b] | > 1000 | –
49 | N#C[C@H]1CN(C23CC(C(F)(F)F)(C2)C3)C(=O)N1c1cncc2ccccc12 (single isomer, unassigned) [Compound 137a] | < 20 | –
50 | N#C[C@@H]1CN(C23CC(C(F)(F)F)(C2)C3)C(=O)N1c1cncc2ccccc12 (single isomer, unassigned) [Compound 137b] | > 1000 | –
51 | N#C[C@H]1CN(C2CCC(F)(F)CC2)C(=O)N1c1cncc2ccccc12 (single isomer, unassigned) [Compound 138a] | < 20 | –
52 | N#C[C@@H]1CN(C2CCC(F)(F)CC2)C(=O)N1c1cncc2ccccc12 (single isomer, unassigned) [Compound 138b] | > 1000 | –
53 | N#C[C@H]1CN(C23CC(F)(C2)C3)C(=O)N1c1cncc2ccccc12 (single isomer, unassigned) [Compound 139a] | < 20 | –
54 | N#C[C@@H]1CN(C23CC(F)(C2)C3)C(=O)N1c1cncc2ccccc12 (single isomer, unassigned) [Compound 139b] | > 1000 | –
55 | CC(C)(C)CN1C[C@H](C#N)N(c2cncc3ccccc23)C1=O (single isomer, unassigned) [Compound 140a] | 20 to 200 | –
56 | CC(C)(C)CN1C[C@@H](C#N)N(c2cncc3ccccc23)C1=O (single isomer, unassigned) [Compound 140b] | > 1000 | –
57 | N#C[C@H]1CN(C2CCC(F)(F)C2)C(=O)N1c1cncc2ccccc12 (single isomer, unassigned) [Compound 141a, (R)-1-((S)-3,3-difluorocyclopentyl)-3-(isoquinolin-4-yl)-2-oxoimidazolidine-4-carbonitrile or (R)-1-((R)-3,3-difluorocyclopentyl)-3-(isoquinolin-4-yl)-2-oxoimidazolidine-4-carbonitrile] | 20 to 200 | –
58 | N#C[C@@H]1CN([C@H]2CCC(F)(F)C2)C(=O)N1c1cncc2ccccc12 (single isomer, unassigned) [Compound 141b, (S)-1-((S)-3,3-difluorocyclopentyl)-3-(isoquinolin-4-yl)-2-oxoimidazolidine-4-carbonitrile or (S)-1-((R)-3,3-difluorocyclopentyl)-3-(isoquinolin-4-yl)-2-oxoimidazolidine-4-carbonitrile] | > 1000 | –
